# Experimental data from publication PMC10712727, “Safety, Tolerability, and Pharmacokinetics of Senaparib, a Novel PARP1/2 Inhibitor, in Chinese Patients With Advanced Solid Tumors: A Phase I Trial” (The Oncologist, 2023).
# Test system: patients with advanced solid tumors
# Assay: Safety: treatment-emergent and senaparib-related adverse events graded per NCI CTCAE v4.03
# Format: in vivo
# Method: This phase I, open-label, multicenter, dose-escalation, and dose-expansion study was conducted at three national clinical institutions in China. […] At baseline, all patients enrolled in the dose-escalation phase had to have at least one evaluable lesion, and those in the dose-expansion period had to have at least one measurable lesion, according to Response Evaluation Criteria in Solid Tumors version 1.1 (RECIST v1.1).[16] Entry to the dose-expansion cohort required the presence of a BRCA mutation, with the exception of patients with ovarian carcinoma, fallopian tube carcinoma, and primary peritoneal carcinoma. Full study eligibility criteria are provided in Supplementary Table S1.
# Dose escalation was conducted using a modified Fibonacci 3 + 3 method (Supplementary Fig. S1).[17] Patients were administered oral senaparib from a planned starting dose of 2 mg once daily (QD), with preliminary dose escalation to 120 mg via nine dose groups, in order of their entry into the study. At a given dose level, each patient received a single dose of senaparib followed by a 7-day washout period. They then entered a continuous dosing period to confirm the safety and PK profile, in which they received senaparib QD from day 1 to day 21 of each 3-week cycle. Progression to the next higher dose required approval from the Data Safety Monitoring Committee (DSMC) upon review of the safety and PK data of the previous dose. A 50-mg twice-daily (BID) dosing group was added (planned enrollment, n = 6 patients) based on a DSMC review of the safety, PK, and efficacy analysis of the completed QD dose groups in the phase I clinical trial of senaparib dose escalation in Australia (NCT03507543), which commenced prior to the start of this trial.
# The dose-expansion period included 3 populations: dose groups in which at least one patient achieved complete response (CR) or partial response (PR) per RECIST v1.1[16] and 1 dose group higher (evaluated for safety), as well as the dose group at the maximum tolerated dose (MTD)/recommended phase II dose (RP2D). Each of these groups included those patients in the respective dose-escalation group plus a planned additional 10 patients (approximately 20 patients in the MTD/RP2D group) with BRCA^mut+ solid tumors (ovarian, breast, or prostate cancer were preferred, and ovarian cancer could be BRCA wild type). Patients received senaparib monotherapy orally QD or BID (50-mg dose only) over each 3-week cycle until disease progression or unacceptable toxicity.
# DLTs were predefined toxicities (Supplementary Table S2) recorded over the 7 days following the single-dose administration of senaparib and during the first treatment cycle (day 1-day 21) for each dose group in the dose-escalation period only. The MTD was defined as the maximum dose at which ≤1/6 patients experienced a DLT. Senaparib PK parameters were derived from blood samples collected from patients after the single administration, and at regular intervals during the first cycle of the dose-escalation and dose-expansion periods. Plasma concentrations of senaparib were determined using high-performance liquid chromatography-tandem mass spectrometry. Tumor response was assessed every 6 weeks per RECIST v1.1,[16] recording objective response rate (ORR), disease control rate (DCR), duration of response (DOR), and progression-free survival (PFS) by dose level for all patients and for those harboring BRCA^mut+ tumors.
compound,measurement,setting,value
O=C(c1cc(Cn2c(=O)[nH]c(=O)c3c(F)cccc32)ccc1F)N1CCN(c2ncccn2)CC1 [Senaparib],"Blood creatinine increased TRAE, Gr≥3",10 mg QD n = 3,0 n (%)
same,"Hypokalemia TRAE, All",10 mg QD n = 3,0 n (%)
same,"Hypokalemia TRAE, Gr≥3",10 mg QD n = 3,0 n (%)
same,"Nausea TRAE, All",10 mg QD n = 3,0 n (%)
same,"Nausea TRAE, Gr≥3",10 mg QD n = 3,0 n (%)
same,"Neutrophil count decreased TRAE, All",10 mg QD n = 3,0 n (%)
same,"Neutrophil count decreased TRAE, Gr≥3",10 mg QD n = 3,0 n (%)
same,"Platelet count decreased TRAE, All",10 mg QD n = 3,0 n (%)
same,"Platelet count decreased TRAE, Gr≥3",10 mg QD n = 3,0 n (%)
same,"SAEs, events",10 mg QD n = 3,0 n ev
same,"SAEs, patients",10 mg QD n = 3,0 n (%)
same,"TEAE Grade ≥3, events",10 mg QD n = 3,0 n ev
same,"TEAE Grade ≥3, patients",10 mg QD n = 3,0 n (%)
same,"TEAEs leading to death, events",10 mg QD n = 3,0 n ev
same,"TEAEs leading to death, patients",10 mg QD n = 3,0 n (%)
same,"TEAEs leading to dose discontinuation, events",10 mg QD n = 3,0 n ev
same,"TEAEs leading to dose discontinuation, patients",10 mg QD n = 3,0 n (%)
same,"TEAEs leading to dose interruption, events",10 mg QD n = 3,0 n ev
same,"TEAEs leading to dose interruption, patients",10 mg QD n = 3,0 n (%)
same,"TEAEs leading to dose reduction, events",10 mg QD n = 3,0 n ev
same,"TEAEs leading to dose reduction, patients",10 mg QD n = 3,0 n (%)
same,"TRAEs Grade ≥3, events",10 mg QD n = 3,0 n ev
same,"TRAEs Grade ≥3, patients",10 mg QD n = 3,0 n (%)
same,"TRAEs, patients",10 mg QD n = 3,3 (100) n (%)
same,"Vomiting TRAE, All",10 mg QD n = 3,0 n (%)
same,"Vomiting TRAE, Gr≥3",10 mg QD n = 3,0 n (%)
same,"WBC decreased TRAE, All",10 mg QD n = 3,1 (33.3) n (%)
same,"WBC decreased TRAE, Gr≥3",10 mg QD n = 3,0 n (%)
same,"ALT increased TRAE, All",20 mg QD n = 5,0 n (%)
same,"ALT increased TRAE, Gr≥3",20 mg QD n = 5,0 n (%)
same,"AST increased TRAE, All",20 mg QD n = 5,0 n (%)
same,"AST increased TRAE, Gr≥3",20 mg QD n = 5,0 n (%)
same,"Anemia TRAE, All",20 mg QD n = 5,1 (20.0) n (%)
same,"Anemia TRAE, Gr≥3",20 mg QD n = 5,1 (20.0) n (%)
same,"Any TEAE, All",20 mg QD n = 5,5 (100) n (%)
same,"Any TEAE, Gr≥3",20 mg QD n = 5,2 (40.0) n (%)
same,"Any TEAE, events",20 mg QD n = 5,30 n ev
same,"Any TEAE, patients",20 mg QD n = 5,5 (100) n (%)
same,"Any TRAE, All",20 mg QD n = 5,3 (60.0) n (%)
same,"Any TRAE, Gr≥3",20 mg QD n = 5,1 (20.0) n (%)
same,"Appetite decreased TRAE, All",20 mg QD n = 5,0 n (%)
same,"Appetite decreased TRAE, Gr≥3",20 mg QD n = 5,0 n (%)
same,"Asthenia TRAE, All",20 mg QD n = 5,1 (20.0) n (%)
same,"Asthenia TRAE, Gr≥3",20 mg QD n = 5,0 n (%)
same,"Blood bilirubin increased TRAE, All",20 mg QD n = 5,0 n (%)
same,"Blood bilirubin increased TRAE, Gr≥3",20 mg QD n = 5,0 n (%)
same,"Blood creatinine increased TRAE, All",20 mg QD n = 5,1 (20.0) n (%)
same,"Blood creatinine increased TRAE, Gr≥3",20 mg QD n = 5,0 n (%)
same,"Hypokalemia TRAE, All",20 mg QD n = 5,1 (20.0) n (%)
same,"Hypokalemia TRAE, Gr≥3",20 mg QD n = 5,0 n (%)
same,"Nausea TRAE, All",20 mg QD n = 5,1 (20.0) n (%)
same,"Nausea TRAE, Gr≥3",20 mg QD n = 5,0 n (%)
same,"Neutrophil count decreased TRAE, All",20 mg QD n = 5,0 n (%)
same,"Neutrophil count decreased TRAE, Gr≥3",20 mg QD n = 5,0 n (%)
same,"Platelet count decreased TRAE, All",20 mg QD n = 5,1 (20.0) n (%)
same,"Platelet count decreased TRAE, Gr≥3",20 mg QD n = 5,0 n (%)
same,"SAEs, events",20 mg QD n = 5,1 n ev
same,"SAEs, patients",20 mg QD n = 5,1 (20.0) n (%)
same,"TEAE Grade ≥3, events",20 mg QD n = 5,3 n ev
same,"TEAE Grade ≥3, patients",20 mg QD n = 5,2 (40.0) n (%)
same,"TEAEs leading to death, events",20 mg QD n = 5,1 n ev
same,"TEAEs leading to death, patients",20 mg QD n = 5,1 (20.0) n (%)
same,"TEAEs leading to dose discontinuation, events",20 mg QD n = 5,2 n ev
same,"TEAEs leading to dose discontinuation, patients",20 mg QD n = 5,2 (40.0) n (%)
same,"TEAEs leading to dose interruption, events",20 mg QD n = 5,1 n ev
same,"TEAEs leading to dose interruption, patients",20 mg QD n = 5,1 (20.0) n (%)
same,"TEAEs leading to dose reduction, events",20 mg QD n = 5,0 n ev
same,"TEAEs leading to dose reduction, patients",20 mg QD n = 5,0 n (%)
same,"TRAEs Grade ≥3, events",20 mg QD n = 5,1 n ev
same,"TRAEs Grade ≥3, patients",20 mg QD n = 5,1 (20.0) n (%)
same,"TRAEs, events",20 mg QD n = 5,15 n ev
same,"TRAEs, patients",20 mg QD n = 5,3 (60.0) n (%)
same,"Vomiting TRAE, All",20 mg QD n = 5,0 n (%)
same,"Vomiting TRAE, Gr≥3",20 mg QD n = 5,0 n (%)
same,"WBC decreased TRAE, All",20 mg QD n = 5,1 (20.0) n (%)
same,"WBC decreased TRAE, Gr≥3",20 mg QD n = 5,0 n (%)
same,"ALT increased TRAE, All",40 mg QD n = 3,0 n (%)
same,"ALT increased TRAE, Gr≥3",40 mg QD n = 3,0 n (%)
same,"AST increased TRAE, All",40 mg QD n = 3,0 n (%)
same,"AST increased TRAE, Gr≥3",40 mg QD n = 3,0 n (%)
same,"Anemia TRAE, All",40 mg QD n = 3,1 (33.3) n (%)
same,"Anemia TRAE, Gr≥3",40 mg QD n = 3,0 n (%)
same,"Any TEAE, All",40 mg QD n = 3,3 (100) n (%)
same,"Any TEAE, Gr≥3",40 mg QD n = 3,0 n (%)
same,"Any TEAE, events",40 mg QD n = 3,7 n ev
same,"Any TEAE, patients",40 mg QD n = 3,3 (100) n (%)
same,"Any TRAE, All",40 mg QD n = 3,3 (100) n (%)
same,"Any TRAE, Gr≥3",40 mg QD n = 3,0 n (%)
same,"Appetite decreased TRAE, All",40 mg QD n = 3,0 n (%)
same,"Appetite decreased TRAE, Gr≥3",40 mg QD n = 3,0 n (%)
same,"Asthenia TRAE, All",40 mg QD n = 3,1 (33.3) n (%)
same,"Asthenia TRAE, Gr≥3",40 mg QD n = 3,0 n (%)
same,"Blood bilirubin increased TRAE, All",40 mg QD n = 3,0 n (%)
same,"Blood bilirubin increased TRAE, Gr≥3",40 mg QD n = 3,0 n (%)
same,"Blood creatinine increased TRAE, All",40 mg QD n = 3,1 (33.3) n (%)
same,"Blood creatinine increased TRAE, Gr≥3",40 mg QD n = 3,0 n (%)
same,"Hypokalemia TRAE, All",40 mg QD n = 3,0 n (%)
same,"Hypokalemia TRAE, Gr≥3",40 mg QD n = 3,0 n (%)
same,"Nausea TRAE, All",40 mg QD n = 3,0 n (%)
same,"Nausea TRAE, Gr≥3",40 mg QD n = 3,0 n (%)
same,"Neutrophil count decreased TRAE, All",40 mg QD n = 3,0 n (%)
same,"Neutrophil count decreased TRAE, Gr≥3",40 mg QD n = 3,0 n (%)
same,"Platelet count decreased TRAE, All",40 mg QD n = 3,0 n (%)
same,"Platelet count decreased TRAE, Gr≥3",40 mg QD n = 3,0 n (%)
same,"SAEs, events",40 mg QD n = 3,0 n ev
same,"SAEs, patients",40 mg QD n = 3,0 n (%)
same,"TEAE Grade ≥3, events",40 mg QD n = 3,0 n ev
same,"TEAE Grade ≥3, patients",40 mg QD n = 3,0 n (%)
same,"TEAEs leading to death, events",40 mg QD n = 3,0 n ev
same,"TEAEs leading to death, patients",40 mg QD n = 3,0 n (%)
same,"TEAEs leading to dose discontinuation, events",40 mg QD n = 3,0 n ev
same,"TEAEs leading to dose discontinuation, patients",40 mg QD n = 3,0 n (%)
same,"TEAEs leading to dose interruption, events",40 mg QD n = 3,0 n ev
same,"TEAEs leading to dose interruption, patients",40 mg QD n = 3,0 n (%)
same,"TEAEs leading to dose reduction, events",40 mg QD n = 3,0 n ev
same,"TEAEs leading to dose reduction, patients",40 mg QD n = 3,0 n (%)
